The source of these data is patent publication US8153593B2, “Transglutaminase inhibitors and methods of use thereof” (The Board of Trustees of the Leland Stanford Junior …, priority 2003, dated 2012).

The term Ki denotes the equilibrium dissociation constant of an inhibitor or competing ligand from its target.

The first experiment concerns the target T1, recombinant human tissue transglutaminase (Homo sapiens, UniProt P21980).
T1 construct: made in house
T1 sequence (P21980 1-687): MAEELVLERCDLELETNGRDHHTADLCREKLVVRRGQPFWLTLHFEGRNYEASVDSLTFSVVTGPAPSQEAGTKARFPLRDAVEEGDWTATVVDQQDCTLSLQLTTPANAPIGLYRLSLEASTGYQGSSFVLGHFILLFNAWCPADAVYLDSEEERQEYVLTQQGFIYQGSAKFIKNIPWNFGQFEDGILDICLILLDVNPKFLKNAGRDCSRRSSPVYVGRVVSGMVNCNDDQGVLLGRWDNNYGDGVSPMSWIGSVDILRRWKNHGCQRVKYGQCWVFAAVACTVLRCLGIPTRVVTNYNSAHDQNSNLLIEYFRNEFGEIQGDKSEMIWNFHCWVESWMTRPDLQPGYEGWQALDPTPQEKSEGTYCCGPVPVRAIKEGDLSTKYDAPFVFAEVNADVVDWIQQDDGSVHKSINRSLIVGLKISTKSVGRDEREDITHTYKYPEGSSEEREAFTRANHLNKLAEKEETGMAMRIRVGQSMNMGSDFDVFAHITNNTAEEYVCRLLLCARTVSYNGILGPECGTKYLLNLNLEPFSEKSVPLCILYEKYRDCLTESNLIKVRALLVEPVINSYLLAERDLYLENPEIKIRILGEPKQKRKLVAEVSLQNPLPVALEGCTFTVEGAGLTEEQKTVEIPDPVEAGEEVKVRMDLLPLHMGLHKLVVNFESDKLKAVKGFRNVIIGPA
In words: tTGase inhibition assay, residual activity by glutamate dehydrogenase coupled assay. The class given is biochemical. To be noted: Table 3.
With `O=C(NC(Cc1c[nH]c2ccc(F)cc12)C(=O)NCC1CC(Br)=NO1)OCc1ccccc1` (stereo not drawn) [ERW903, [1-[(3-Bromo-4,5-dihydro-isoxazol-5-ylmethyl)-carbamoyl]-2-(5-fluoro-1H-indol-3-yl)-ethyl]-carbamic acid benzyl ester], the kinh/KI was <1200 >1200 <1200 <1200 /Mmin.

Consider `O=C(NCC1CC(Br)=NO1)C1Cc2ccccc2N1C(=O)OCc1ccccc1` (stereo not drawn) [ERW1045, 2-[(3-Bromo-4,5-dihydro-isoxazol-5-ylmethyl)-carbamoyl]-2,3-dihydro-indole-1-carboxylic acid benzyl ester], for which the kinh/KI was <1200 /Mmin.

For `O=C(NCC1CC(Br)=NO1)[C@@H]1CCCN1C(=O)OCc1cnc2ccccc2c1` (stereo in doubt) [ERW1041E, 2-[(3-Bromo-4,5-dihydro-isoxazol-5-ylmethyl)-carbamoyl]-pyrrolidine-1-carboxylic acid quinolin-3-ylmethyl ester], the Ki turned out to be 953 µM, the kinh was determined as 2.856 min⁻¹ and the kinh/KI is 3000 /Mmin.

With `O=C(NC(Cc1ccc(O)cc1)C(=O)NCC1CC(Br)=NO1)OCc1cnc2ccccc2c1` (stereo not drawn) [ERW1041A, [1-[(3-Bromo-4,5-dihydro-isoxazol-5-ylmethyl)-carbamoyl]-2-(4-hydroxy-phenyl)-ethyl]-carbamic acid quinolin-3-ylmethyl ester], the Ki was found to be 63.1 µM, the kinh was 0.184 min⁻¹ and the kinh/KI is on record as 2900 /Mmin.

In the case of `O=C(NC(Cc1c[nH]c2ccc(F)cc12)C(=O)NCC1CC(Br)=NO1)OCc1cnc2ccccc2c1` (stereo not drawn) [ERW1069, [1-[(3-Bromo-4,5-dihydro-isoxazol-5-ylmethyl)-carbamoyl]-2-(5-fluoro-1H-indol-3-yl)-ethyl]-carbamic acid quinolin-3-ylmethyl ester], the Ki came out at 4.9 µM, the kinh turned out to be 0.1314 min⁻¹ and the kinh/KI was 26800 /Mmin.

`O=C(NC(Cc1c[nH]c2ccc(O)cc12)C(=O)NCC1CC(Br)=NO1)OCc1cnc2ccccc2c1` (stereo not drawn) [ERW1041B, [1-[(3-Bromo-4,5-dihydro-isoxazol-5-ylmethyl)-carbamoyl]-2-(5-hydroxy-1H-indol-3-yl)-ethyl]-carbamic acid quinolin-3-ylmethyl ester]: the Ki was found to be 1380 µM, the kinh was determined as 2.57 min⁻¹ and the kinh/KI is listed as 1850 /Mmin.

In the case of `COc1ccc2[nH]cc(CC(NC(=O)OCc3cnc4ccccc4c3)C(=O)NCC3CC(Br)=NO3)c2c1` (stereo not drawn) [ERW1041D, [1-[(3-Bromo-4,5-dihydro-isoxazol-5-ylmethyl)-carbamoyl]-2-(5-methoxy-1H-indol-3-yl)-ethyl]-carbamic acid quinolin-3-ylmethyl ester], the Ki worked out at 173 µM, the kinh came to 0.283 min⁻¹ and the kinh/KI is 1600 /Mmin.

The same experiment, now with this note: dihydroisoxazoles, Table 1.
Consider `O=C(N[C@@H](Cc1ccccc1)C(=O)OCC1CC(Br)=NO1)OCc1ccccc1` (stereo partly drawn) [Compound 52, (S)-2-Benzyloxycarbonylamino-3-phenyl-propionic acid 3-bromo-4,5-dihydro-isoxazol-5-ylmethyl ester], for which the Ki amounted to 1300 µM, the kinh was 0.32 min⁻¹ and the kinh/Ki stood at 230 min^−1M^−1.

As for `COC(=O)[C@H](CC(=O)NCC1CC(Br)=NO1)NC(=O)OCc1ccccc1` (stereo partly drawn) [Compound 51, (S)-2-Benzyloxycarbonylamino-N-(3-bromo-4,5-dihydro-isoxazol-5-ylmethyl)-succinamic acid methyl ester], the Ki turned out to be 870 µM, the kinh is 0.43 min⁻¹ and the kinh/Ki amounted to 490 min^−1M^−1.

`CN(CC1CC(Br)=NO1)C(=O)[C@H](Cc1ccccc1)NC(=O)OCc1ccccc1` (stereo partly drawn) [Compound 58, {(S)-1-[(3-Bromo-4,5-dihydro-isoxazol-5-ylmethyl)-methyl-carbamoyl]-2-phenyl-ethyl}-carbamic acid benzyl ester]: the Ki worked out at 260 µM, the kinh is 0.19 min⁻¹ and the kinh/Ki worked out at 730 min^−1M^−1.

As for `O=C(NCC1CC(Br)=NO1)Nc1ccc(Cl)cc1C(F)(F)F` (stereo not drawn) [Compound 62, 1-(3-Bromo-4,5-dihydro-isoxazol-5-ylmethyl)-3-(4-chloro-2-trifluoromethyl-phenyl)-urea], the kinh was 1.1 min⁻¹ and the kinh/Ki stood at 850 min^−1M^−1.

Take `COC(=O)[C@H](CCC(=O)NCC1CC(Br)=NO1)NC(=O)OCc1ccccc1` (stereo partly drawn) [Compound 50, (S)-2-Benzyloxycarbonylamino-4-[(3-bromo-4,5-dihydro-isoxazol-5-ylmethyl)-carbamoyl]-butyric acid methyl ester]: the Ki was 1600 µM, the kinh was found to be 0.32 min⁻¹ and the kinh/Ki is 200 min^−1M^−1.

In the case of `O=C(N[C@@H](Cc1c[nH]c2ccccc12)C(=O)NCC1CC(Br)=NO1)OCc1ccccc1` (stereo partly drawn) [Compound 57, [(S)-1-[(3-Bromo-4,5-dihydro-isoxazol-5-ylmethyl)-carbamoyl]-2-(1H-indol-3-yl)-ethyl]-carbamic acid benzyl ester], the kinh was 0.78 min⁻¹ and the kinh/Ki came out at 2500 min^−1M^−1.

Take `O=C(NCC1CC(Br)=NO1)Nc1ccccc1` (stereo not drawn) [Compound 60, 1-(3-Bromo-4,5-dihydro-isoxazol-5-ylmethyl)-3-phenyl-urea]: the kinh was 0.89 min⁻¹ and the kinh/Ki is 810 min^−1M^−1.

As for `Cc1ccc(C)c(NC(=O)NCC2CC(Br)=NO2)c1` (stereo not drawn) [Compound 64, 1-(3-Bromo-4,5-dihydro-isoxazol-5-ylmethyl)-3-(2,5-dimethyl-phenyl)-urea], the kinh came out at 0.97 min⁻¹ and the kinh/Ki is recorded as 1000 min^−1M^−1.

On to `C[C@H](NC(=O)OCc1ccccc1)C(=O)NCC1CC(Br)=NO1` (stereo partly drawn) [Compound 53, {(S)-1-[(3-Bromo-4,5-dihydro-isoxazol-5-ylmethyl)-carbamoyl]-ethyl}-carbamic acid benzyl ester], for which the Ki amounted to 910 µM, the kinh was determined as 0.41 min⁻¹ and the kinh/Ki is listed as 450 min^−1M^−1.

Turning to `CC(=O)N[C@@H](Cc1ccccc1)C(=O)NCC1CC(Br)=NO1` (stereo partly drawn) [Compound 54, (S)-2-Acetylamino-N-(3-bromo-4,5-dihydro-isoxazol-5-ylmethyl)-3-phenyl-propionamide], the Ki came to 2700 µM, the kinh worked out at 0.60 min⁻¹ and the kinh/Ki came out at 220 min^−1M^−1.

For the molecule `O=C(NCC1CC(Br)=NO1)Nc1cc(C(F)(F)F)ccc1Cl` (stereo not drawn) [Compound 61, 1-(3-Bromo-4,5-dihydro-isoxazol-5-ylmethyl)-3-(2-chloro-5-trifluoromethyl-phenyl)-urea], the kinh was 0.95 min⁻¹ and the kinh/Ki was 1000 min^−1M^−1.

For the molecule `O=C(N[C@H](Cc1ccccc1)C(=O)NCC1CC(Br)=NO1)OCc1ccccc1` (stereo partly drawn) [Compound 55, {(R)-1-[(3-Bromo-4,5-dihydro-isoxazol-5-ylmethyl)-carbamoyl]-2-phenyl-ethyl}-carbamic acid benzyl ester], the kinh stood at 0.29 min⁻¹.

On to `O=C(NCC1CC(Br)=NO1)Nc1ccc(F)cc1` (stereo not drawn) [Compound 63, 1-(3-Bromo-4,5-dihydro-isoxazol-5-ylmethyl)-3-(4-fluoro-phenyl)-urea], for which the kinh stood at 1.0 min⁻¹ and the kinh/Ki was found to be 770 min^−1M^−1.
